Legend:
[1] = system: SB574TL sugar beet cell colony; assay: Growth of selected mutant cell colony (clone SB574TL) on foramsulfuron medium; format: cell-based, Beta vulgaris; conditions: 3×10^−7 M and even 3×10^−6 M foramsulfuron
From the text: When this callus type was exposed to 10^−9 M of the sulfonylurea foramsulfuron (CAS RN 173159-57-4), the cells survived, but produced less than 50% of the biomass of their siblings on medium devoid of the inhibitor. On medium containing 3×10^−8 M foramsulfuron no growth was detectable. For large scale mutant selection experiments 10^−7 M foramsulfuron was chosen. Surviving and growing cell colonies were numbered and transferred after 4-6 weeks onto fresh medium containing 3×10^−7 M of the inhibitor. One of these cell colonies was able to grow not only at this concentration of the inhibitor but even in presence of 3×10^−6 M of foramsulfuron. From this clone (SB574TL), shoots were regenerated in presence of the ALS-inhibitor herbicide and then the shoots were transferred to MS medium containing 0.05 mg/l Naphthalene acetic acid (NAA).
When this callus type was exposed to 10^−9 M of the ALS inhibitor herbicide foramsulfuron (belonging to the sulfonylurea subclass, see above), the cells survived, but produced less than 50% of the biomass of their siblings on medium devoid of the inhibitor. On medium containing 3×10^−8 M foramsulfuron no growth was detectable. For large scale mutant selection experiments, 10^−7 M foramsulfuron was chosen. Surviving and growing cell colonies were numbered and transferred after 4-6 weeks onto fresh medium containing 3×10^−7 M of the inhibitor. […]

[2] = system: wild type sugar beet plants; assay: Herbicide treatment of regenerated plants from wild type cell cultures (greenhouse); format: in vivo, Beta vulgaris; conditions: lowest doses tested (range 7-70 g a.i./ha foramsulfuron, 1-10 g a.i./ha iodosulfuron-methyl-sodium, mixtures 7:1)
From the text: (§1) Within 4-12 weeks the shoots formed roots and then they were transferred into sterile plant containers filled with wet, sterilized perlite, watered with half strength MS inorganic ingredients. Alternatively the plantlets were transferred directly from the agar solidified medium in a perlite containing soil mixture in the greenhouse. During the first 10-15 days after transfer into soil containing substrate the plants were kept in an environment with high air humidity. During and after they were weaned to normal greenhouse air humidity regimes the plants were kept in the greenhouse under artificial light (12 h) at 20+−3° C./15+−2° C. day/night temperatures.
(§2) 3-5 weeks later, the regenerated plants from the above obtained foramsulfuron tolerant cell culture (SB574TL) as well as from the wild type cell cultures were treated with foramsulfuron, iodosulfuron-methyl-sodium (CAS RN […]) and a mixture of both active ingredients. The herbicide doses tested were equivalent to 7-70 g a.i./ha for foramsulfuron and 1-10 g a.i./ha for iodosulfuron-methyl-sodium.

[3] = system: ALS in leaf extracts of wild type sugar beets and SB574TL; assay: ALS enzyme activity measurements from plant leaf extracts; format: biochemical, Beta vulgaris
From the text: When plants are used, ALS activity is preferably determined in cell extracts or leaf extracts of wild type and B. vulgaris cell extracts or leaf extracts of the obtained mutant in the presence of various concentrations of ALS-inhibitor herbicides, preferably sulfonylurea herbicides or sulfonylamino-carbonyltriazolinone herbicides, more preferably in the presence of various concentrations of the ALS inhibitor herbicide “foramsulfuron”. ALS is thus preferably extracted from sugar beet leaves or sugar beet tissue cultures as described by Ray (1984) in Plant Physiol 75:827-831.
ALS was extracted from sugar beet leaves or sugar beet tissue cultures as described by Ray (1984), Plant Physiol 75:827-831.
ALS activity was determined in leaf extracts of wild type and sugar beets and leaf extracts of the obtained SB574TL in presence of various concentrations of foramsulfuron as described in Example 4.
In total, the mutant enzyme was at least 2000 times less sensitive against the ALS inhibitor foramsulfuron than the wild type enzyme.

[4] = system: sugar beet calli (diploid genotype 7T9044); assay: cells; format: cell-based, Beta vulgaris
Experimental: Sugar beet cell cultures were initiated from seedlings of a diploid sugar beet genotype 7T9044 (as, for example, described by Alexander Dovzhenko, PhD Thesis, Title: “Towards plastid transformation in rapeseed (Brassica napus L.) and sugarbeet (Beta vulgaris L.)”, Ludwig-Maximilians-Universität München, Germany, 2001). Sugar beet seeds were immersed for 60 seconds in 70% ethanol, then rinsed twice in sterile water with 0.01% detergent and then incubated for 1-4 hours in 1% NaOCl bleach. Thereafter the seeds were washed 3 times with sterile H2O and the seeds were stored in sterile water overnight at 4° C. The embryos were then isolated using forceps and scalpel.
The freshly prepared embryos were immersed in 0.5% NaOCl for 30 min and then washed 3 times in sterile water. After the last washing step they were placed on hormone free MS agar medium (Murashige and Skoog (1962), Physiol. Plantarum, 15, 473-497). Those embryos which developed into sterile seedlings were used for the initiation of regenerable sugar beet cell cultures.
Cotyledons as well as hypocotyls were cut into 2-5 mm long segments and then cultivated on agar (0.8%) solidified MS medium containing either 1 mg/l Benzylaminopurine (BAP) or 0.25 mg/l Thidiazuron (TDZ). 4 weeks later the developing shoot cultures were transferred onto fresh agar medium of the same composition and then sub-cultured in monthly intervals. […]

[5] = system: regenerated plants from SB574TL cell culture; assay: Herbicide treatment of regenerated plants from the foramsulfuron tolerant cell culture (greenhouse); format: in vivo, Beta vulgaris; conditions: highest doses tested (range 7-70 g a.i./ha foramsulfuron, 1-10 g a.i./ha iodosulfuron-methyl-sodium, mixtures 7:1)
From the text: as §1, §2

[6] = system: Beta vulgaris wild-type and W574L-mutant (SB574TL) ALS; assay: ALS enzyme activity measurements, E. coli expressed enzyme; format: biochemical; conditions: crude protein extract, from pI50-values
Experimental: The coding sequence of a Beta vulgaris wild-type and a mutant B. vulgaris plant is cloned into, for example, Novagen pET-32a(+) vectors and the vectors are transformed into, for example, Escherichia coli AD494 according to the instructions of the manufacturer. Bacteria are preferably grown at 37° C. in medium under selection pressure such as in LB-medium containing 100 mg/l carbenicillin and 25 mg/l kanamycin, are induced with, for example, 1 mM isopropyl-β-D-thiogalactopyranoside at an OD600 of preferably about 0.6, cultivated for about 16 hours at preferably 18° C. and harvested by centrifugation. Bacterial pellets are resuspended in 100 mM sodium phosphate buffer pH 7.0 containing 0.1 mM thiamine-pyrophosphate, 1 mM MgCl2, and 1 μM FAD at a concentration of 1 gram wet weight per 25 ml of buffer and disrupted by sonification. The crude protein extract obtained after centrifugation is used for ALS activity measurements.
ALS assays are then carried out in, for example, 96-well microtiter plates using a modification of the procedure described by Ray (1984), Plant Physiol., 75, 827-831. The reaction mixture contains preferably 20 mM potassium phosphate buffer pH 7.0, […], 0.45 mM thiamine-pyrophosphate, 0.45 mM MgCl2, 9 μM FAD, ALS enzyme and various concentrations of ALS inhibitors in a final volume of about 90 μl. […]

Structure (SMILES): COc1cc(OC)nc(NC(=O)NS(=O)(=O)c2cc(NC=O)ccc2C(=O)N(C)C)n1 [foramsulfuron]
- growth of mutant cell colony [1]: able to grow
- effect on wild type plants [2]: killed
- sensitivity of mutant enzyme relative to wild type enzyme (times less sensitive) [3]: at least 2000 times
- cell survival of callus ([4]; 10^−9 M foramsulfuron in medium): survived
- viability at 0.001 µM ([4]; Beta vulgaris, read-out: biomass relative to siblings on medium devoid of the inhibitor): < 50%
- tolerance of regenerated plants to herbicide [5]: tolerated even the highest herbicide doses
- sensitivity of mutant enzyme relative to wild type enzyme (times less sensitive) [6]: at least 2000 times

Structure (SMILES): COC(=O)c1ccc(I)cc1S(=O)(=O)[N-]C(=O)Nc1nc(C)nc(OC)n1.[Na+] [iodosulfuron-methyl-sodium]
- effect on wild type plants [2]: killed
- tolerance of regenerated plants to herbicide [5]: tolerated even the highest herbicide doses
